Columns and labels:
[1] = target: T1, dopamine-D2 receptor (human dopamine D2s) (Homo sapiens, UniProt P14416); assay: Assay for affinity for dopamine receptor: competitive inhibition of [3H]spiperone binding; details: 10 μM compound; 0.16 nM [3H]spiperone; CHO cells transfected with human dopamine D2s gene; mean of two experiments
T1 construct: expressed in transfected cells; host or cells: CHO cells
Method: Affinity of the compounds of the present invention for the dopamine-D2 receptor, which is found in the wall of the gastric tract of mammals and inhibits gastrointestinal motility, was determined by measuring competitive inhibition against the binding to the receptor of a radio-labeled ligand which is known for its affinity for the receptor. In this regard, the experiment was performed according to the method described in [Heys G et al. Mol Endocrinol. 6:920, 1992] and [Grandy D K et al. Proc Natl Acad Sci USA. 86:9762, 1989].
In tris-HCl buffer ([…], pH 7.4, 120 mM NaCl, 5 mM KCl, 2 mM CaCl2, 1 mM MgCl2) 150 μg of Chinese hamster ovary (CHO) cells transfected with a human dopamine D2s gene were incubated at 25° C. for 120 min with 0.16 nM of tritium Spiperone (^3[H] Spiperon [NEN, 250 μCi]) and 10 μM of the compound of interest of the present invention. After completion of the reaction, the reaction mixture was filtered through Whatman GF/B filter (unifilter-96, Lot: 6005177, PerkinElmer) to separate ligand-bound receptors. These bound receptors were washed three times with a Tris-HCl buffer. Then 10 mL of a scintillation cocktail (Lot: 03999, Fluka) was added and reacted for 16 hrs or longer to measure radiation activity using a beta-counter (Packcard) in order to calculate the quantity of tritium spiperone bound to the receptor. Meanwhile, 10 μM of Haloperidol (H1512, Sigma) was incubated in the presence of 0.16 nM tritium Spiperone to determine a nonspecific binding value. The experiment was independently carried out twice, and receptor affinity was calculated using the following Equation 1.
Receptor Affinity(%)={(Total CPM−Nonspecific Binding CPM−CPM of tritium Spiperone remaining after addition of interest compound of the present invention)/(Total CPM−Nonspecific Binding CPM)}×100 Equation 1
(CPM: counter per minute)

serotonin-1B receptor = target: T2, serotonin-1B receptor (Rattus norvegicus, UniProt P28564); assay: Assay for affinity for serotonin-1B receptor: competitive inhibition of [125I]cyanopindolol binding to rat cerebral cortex membranes; details: 10 μM compound, 10 pM [125I]cyanopindolol, mean of two experiments
T2 construct: cell membranes of the cerebral cortex excised from male Winstar rats; from tissue; host or cells: rat cerebral cortex membranes
Method: Compounds of the present invention were examined for affinity for the serotonin-1B receptor which can exert a relaxation effect on the stomach to relieve impaired gastric accommodation of functional dyspepsia patients in response to an agonist.
In a Tris-HCl buffer (50 mM Tris-HCl, pH 7.4, 120 mM NaCl, 5 mM KCl, 2 mM CaCl2, 1 mM MgCl2), 4 mg of cell membranes of the cerebral cortex excised from male Winstar rats, each weighing 175±25 g, was incubated at 37° C. for 1.5 hrs with 10 pM of ^125[I] cyanopindolol (PerkinElmer, 100 μCi) and 10 μM of the compound of interest of the present invention per well. After completion of the incubation, the incubation mixture was filtered through Whatman GF/B filter (unifilter-96, Lot: 6005177, PerkinElmer) to separate ligand-bound receptors. These bound receptors were washed three times with 5 mL of a Tris-HCl buffer. Then, 10 mL of a scintillation cocktail (Lot: 03999, Fluka) was added and reacted for 16 hrs or longer to measure radiation activity using a beta-counter (Packcard) in order to calculate the quantity of ^125[I] cyanopindolol bound to the receptor.
Meanwhile, 10 μM of serotonin (H9523, Sigma) was incubated in the presence of 10 pM of ^125[I] cyanopindolol to determine a nonspecific binding value. The experiment was independently carried out twice, and receptor affinity was calculated using the following Equation 2. […]

[2] = Gastric emptying effect on normal rat, semi-solid test meal; type: in vivo, Sprague-Dawley rats; details: for Gastric Emptying (%): 45 min before test meal, stomach weighed 35 min after meal
Method: Gastric emptying activity of the compounds of the present invention was examined in the following experiment.
Sprague-Dawley rats, each weighing 200˜250 g, were acclimated for one week at a temperature of 22˜24° C. and a humidity of 60-80% while a standard diet and water were provided, and then were divided into groups according to weight. Thereafter, they were starved for 24 hrs before an experiment while water was provided. From 3 hrs before the experiment, no more water was provided. […] For control 1, only 1 mL of a 3% hydroxypropylmethyl cellulose solution was used while sisapride was orally administered at a dose of 1 mg/kg in 1 mL of a 3% hydroxypropylmethyl cellulose to control 2.
After 45 min, a semi-solid test meal prepared by mashing feeds in water, was orally administered in an amount of 2 mL to each rat. After 35 min, the SD rats were killed, and the stomach containing the semi-solid test meal was excised, and weighed. Subsequently, the stomach was washed with distilled water to remove the gut content, dried, and weighed again, in order to calculate the weight of the semi-solid test meal left in the gut.
Gastric Emptying(%)=[1−(weight of semi-solid test meal left in gut/weight of semi-solid test meal at 0-time)]×100 [Equation 3]
(weight of semi-solid test meal at 0-time means weight of the semi-solid test meal left in the rat killed immediately after the administration of the semi-solid test meal)

T1 sequence (P14416 1-414 isoform P14416-2): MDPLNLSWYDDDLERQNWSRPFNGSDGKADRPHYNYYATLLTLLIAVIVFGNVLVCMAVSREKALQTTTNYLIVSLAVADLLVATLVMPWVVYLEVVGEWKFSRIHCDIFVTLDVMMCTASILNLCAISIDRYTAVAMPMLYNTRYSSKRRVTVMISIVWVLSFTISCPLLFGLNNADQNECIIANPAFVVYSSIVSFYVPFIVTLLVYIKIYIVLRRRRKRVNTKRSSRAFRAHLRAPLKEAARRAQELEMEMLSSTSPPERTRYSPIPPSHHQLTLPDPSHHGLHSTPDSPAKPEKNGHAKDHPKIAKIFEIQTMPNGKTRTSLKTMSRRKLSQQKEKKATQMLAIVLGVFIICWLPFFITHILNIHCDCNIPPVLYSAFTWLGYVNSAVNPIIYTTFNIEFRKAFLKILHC
T2 sequence (P28564 whole entry): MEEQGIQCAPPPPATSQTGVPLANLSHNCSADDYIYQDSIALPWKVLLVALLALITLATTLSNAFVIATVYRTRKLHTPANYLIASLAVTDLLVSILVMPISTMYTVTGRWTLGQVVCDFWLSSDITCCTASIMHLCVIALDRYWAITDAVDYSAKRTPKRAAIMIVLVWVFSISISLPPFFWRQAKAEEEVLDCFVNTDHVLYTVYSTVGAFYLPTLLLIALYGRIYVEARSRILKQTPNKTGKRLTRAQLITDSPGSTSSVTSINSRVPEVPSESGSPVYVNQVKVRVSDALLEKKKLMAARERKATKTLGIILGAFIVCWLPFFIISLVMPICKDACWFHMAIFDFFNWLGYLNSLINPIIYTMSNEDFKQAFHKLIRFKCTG

Affinity (%) [1]	Affinity (%) (serotonin-1B receptor)	Compound	Gastric Emptying (%) ([2]; 10 μg/kg oral)	increase of gastric emptying compared to control 1 (no drug) ([2]; 10 μg/kg oral, normal rat)	Gastric Emptying (%) ([2]; 10 mg/kg oral (Table 3))
91%	61%	COc1cc2c(cc1Oc1cc3c(cc1OC)-c1c(OC)c(OC)cc4ccnc(c14)C3=O)CCN1Cc3c(ccc(OC)c3OC)C[C@@H]21 [Compound of Example 1, (S)-1,2,10-Trimethoxy-9-(2,9,10-trimethoxy-5,8,13,13a-tetrahydro-6H-isoquino[3,2-a]isoquinolin-3-yloxy)-dibenzo[de,g]quinolin-7-one]	62.3%	roughly two-fold	–
25%	35%	COc1cc2c(cc1Oc1cc3c(cc1OC)CC[n+]1cc4c(OC)c(OC)ccc4cc1-3)C[C@@H]1NCCc3cc(OC)c(OC)c-2c31 [Compound of Example 2, (S)-3,9,10-Trimethoxy-2-(1,2,10-trimethoxy-5,6,6a,7-tetrahydro-4H-dibenzo[de,g]quinolin-9-yloxy)-5,6-dihydro-isoquino[3,2-a]isoquinolinylium]	47.3%	–	–
–	–	COc1cc(N)c(Cl)cc1C(=O)NC1CCN(CCCOc2ccc(F)cc2)CC1OC (stereo not drawn) [Control 2, sisapride, reference compound]	–	–	68.9%
75%	–	COc1ccc(C(=O)NCc2ccc(OCCN(C)C)cc2)cc1OC [Itopride, reference compound]	–	–	–
